# In patent US20190350964A1, “ANTI-CANCER COMPOUNDS AND USES THEREOF” (NATIONAL UNIVERSITY OF SINGAPORE, priority 2016, published 2019):
# What was measured:
# PI5P4Kα = target: T1, PI5P4Kα (Homo sapiens, UniProt P48426); experiment: Cell-free PI5P4Kα activity assay (ADP-Glo); format: biochemical; conditions: 1 h pre-incubation; PI(5)P 20 μM, ATP 10 μM; read-out: IC50, kinase activity of purified PI5P4Kα in vitro
# T1 construct: gift from Daiichi Sankyo Co., Ltd. and Daiichi Sankyo RD Novare Co., Ltd
# T1 sequence (P48426 whole entry): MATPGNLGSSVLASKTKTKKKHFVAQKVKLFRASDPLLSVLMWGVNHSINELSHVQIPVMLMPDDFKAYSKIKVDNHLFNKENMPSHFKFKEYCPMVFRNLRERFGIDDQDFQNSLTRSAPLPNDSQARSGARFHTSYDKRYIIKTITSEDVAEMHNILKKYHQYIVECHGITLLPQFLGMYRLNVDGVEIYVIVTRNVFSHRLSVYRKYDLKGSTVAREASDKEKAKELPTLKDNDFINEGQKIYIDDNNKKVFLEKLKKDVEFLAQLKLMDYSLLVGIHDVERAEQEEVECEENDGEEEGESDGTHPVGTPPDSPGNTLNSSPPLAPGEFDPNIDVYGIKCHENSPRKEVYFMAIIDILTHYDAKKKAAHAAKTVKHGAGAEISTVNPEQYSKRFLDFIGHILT
# Experimental: For cell-free PI5P4Kα activity assays, serial dilutions of compounds were pre-incubated with 1 ng of PI5P4Kα (kind gift from Daiichi Sankyo Co., Ltd. and Daiichi Sankyo RD Novare Co., Ltd.) in reaction buffer [50 mM HEPES (pH 7.0), 13 mM MgCl2, 0.005% CHAPS, 0.01% BSA, 2.5 mM DTT] for 1 h at 25° C. DOPS (80 μM, Avanti polar lipids), PI(5)P (20 μM, Echelon) and ATP (10 μM, Sigma-Aldrich) were added and further incubated for 90 min at room temperature. PI5P4Kα activity was measured by recording luminescent signals (Tecan) using an ADP-Glo Kinase Assay (Promega) according to the manufacturer's protocol.
# PIK3IP1 = experiment: qRT-PCR of PIK3IP1 mRNA in Ras- or Raf-mutant cancer cell lines; format: cell-based, human; conditions: U0126 and/or SCH772984, 24 h
# Experimental: […] human […] ID NO: 11, [NT] ID NO: 12), human […] ID NO: 13, [NT] ID NO: 14), human […] ID NO: 15, [NT] ID NO: 16) and human PIK3IP1 ([NT] ID NO: 17, [NT] ID NO: 18). The TATA-binding protein (TBP) gene was used for normalization. All PCR reactions were performed in triplicate.
# [1] = tested on: normal and transformed BJ cells; experiment: a131 SAR analysis: pH3(Ser10) immunoblot, BrdU incorporation, subG1 FACS; format: cell-based, human; design: key: Group 1: possess the dual-inhibitory properties of both causing the arrest of normal BJ cells at the G1/S phase and also causing mitotic arrest/catastrophe in transformed BJ cells; Group 2: only cause the arrest of normal BJ cells at the G1/S phase; Group 3: cause mitotic arrest/catastrophe in transformed BJ cells, but do not arrest normal BJ cells at the G1/S phase; Group 4: are inactive or weakly active; conditions: 5 μM, 48 h
# Experimental: (§1) Cell death was assessed via Annexin V and/or PI (propidium iodide) staining according to the manufacturer's instructions (eBioscience). Cell growth arrest was assessed by direct measurement of DNA synthesis through incorporation of the nucleoside analog bromodeoxyuridine (BrdU). Briefly, BrdU (30 μM, Sigma-Aldrich) was added for 2 h before harvesting cells. Cells were subsequently stained with Pacific Blue-conjugated BrdU antibody (Invitrogen) for 1 h followed by PI staining. Stained cells were analyzed by MACSQuant (MACS). Three independent experiments were performed in triplicate. The percentage of Annexin V/PI- or BrdU-positive cells was quantified using Flow Jo software (Becton Dickinson). Where indicated, the combined activity of caspase-3/7 was determined using the caspase-Glo 3/7 Assay Kit (Promega) and normalized to the number of viable cells as determined by MTT assay.
# Total cell lysates were prepared with 1% triton lysis buffer [25 mM Tris HCl (pH 8.0), 150 mM NaCl, 1% triton-X100, 1 mM dithiothreitol (DTT), protease inhibitor mix (Complete Mini, Roche) and phosphatase inhibitor (PhosphoStop, Roche)] and subjected to SDS-PAGE. The following antibodies were used for immunoblotting: anti-β-actin (Sigma-Aldrich), anti-cleaved PARP (Abcam, #ab32064), anti-PI5P4Kα (#5527), anti-PI5P4Kβ (#9694), anti-cleaved caspase-3 (#9664), anti-pHistone H3(Ser10) (#3377), anti-pAkt(S473) (#9271), anti-pAkt(T308) (#13038), anti-total Akt (#9272), anti-p70S6K(T389) (#9234), anti-total p70S6K (#9202), anti-pErk (#4370), anti-γ-Histone H2AX (#9718) (Cell signaling) and anti-PIK3IP1 (Proteintech, #16826-1-AP). The secondary antibodies used were sheep anti-mouse IgG HRP and donkey anti-rabbit IgG HRP (Amersham; 1:2000 dilution). Immunoreactive proteins were visualized using ECL reagent (Amersham). Where indicated, intensities of protein bands were quantified by densitometry (Odyssey V3.0), normalized to their loading controls and then calculated as fold expression change relative to DMSO control.
# [2] = tested on: HCT-15 human colon adenocarcinoma cells; experiment: HCT-15 tumor xenograft in nude mice; format: in vivo, mouse; conditions: for antitumor activity (tumor volume): a131 20 mg/kg, b5 40-80 mg/kg, 12 days, paclitaxel IV
# Text: BALB/c athymic female nude mice (nu/nu, 5-7 weeks) (InVivos) were kept under specific pathogen-free (SPF) conditions. The care and use of mice was approved by the Duke-NUS IACUC in accordance with protocol 2015/SHS/1030. HCT15 human colon cancer cells (5×10^6) or MDA-MB-231 human breast cancer cells (4×10^6 with Matrigel) were subcutaneously injected into the flanks of mice. When the mean tumor volume reached 100-300 mm^3 (Day 1), the mice were randomly divided into experimental groups of 6 mice by an algorithm that moves animals around to achieve the best case distribution to assure that each treatment group has similar mean tumor burden and standard deviation. No statistical method was used to predetermine sample size. […] Paclitaxel (Cayman Chemical) was dissolved in ethanol:Tween 80=1:3 (v/v) solution followed by the addition of a 5% glucose solution (final ratio, ethanol:Tween 80:5% glucose=5:15:80) and injected via the tail vain (IV). Tumor dimensions were measured using calipers, and tumor volume (mm^3) was calculated using the formula width^2×length/2 in a blinded fashion. On Day 12 (HCT15) or Day 16 (MDA-MB-231), mice were sacrificed. Tumors were collected, fixed overnight in 4% paraformaldehyde (PFA) and stored in 70% ethanol. For immunostaining, antigens were retrieved from formaldehyde-fixed, paraffin-embedded tumor tissue sections for 30 min by boiling in sodium citrate buffer (pH 6.0) using a microwave histoprocessor (Milestone). Endogenous peroxidase activity in tissue sections was depleted by treatment with 3% hydrogen peroxide (H2O2 in 1×TBS) for 20 min at room temperature. Tumor tissue sections were incubated overnight with anti-β-tubulin (Abcam; 1:100 in 3% BSA/TBS-Tween 20) at 4° C. followed by incubation with goat anti-rabbit FITC-conjugated secondary antibody (Invitrogen; 1:200 in 3% BSA/TBS) for 1 h at 25° C. After dehydration treatment, coverslips were mounted using DAPI mounting medium (Vector). Images were acquired in 3D-SIM mode using a super resolution microscope (Nikon), and the number of cells with either 2 or mitotic-spindles was quantified (n>50 cells per section, 6-7 sections per treatment). For detection of apoptosis using the TUNEL method, the ApopTag Plus Peroxidase In Situ Apoptosis Detection Kit (Millipore) was used for formaldehyde-fixed, paraffin-embedded tumor tissue sections treated with b5 (80 mg/kg, IP) or control vehicle for 12 days. Slide scans were acquired using a MetaSystems Metafer built on a Zeiss Axiolmager Z.2 upright microscope. The system is equipped with a CoolCubel camera and a Zeiss Plan-Neofluar 20×/0.5 Ph2 objective lens. Image acquisition was controlled with Metafer4 software, and stitching was performed with the VSlide software and further processed using the open source software FIJI. A custom macro was used to batch process the images in the following sequence: Gaussian filter, color deconvolution of hematoxylin and DAB, thresholding the hematoxylin image, watershed to separate touching nuclei, and then count the number of hematoxylin-stained nuclei. For the DAB image, a fixed threshold was used, watershed applied and the number of DAB stained nuclei counted. In all cases, no data or animals were excluded and results are expressed as mean and standard deviation of the mean.
# [3] = tested on: MDA-MB-231 human breast tumor cells; experiment: MDA-MB-231 tumor xenograft in nude mice; format: in vivo, mouse; conditions: a131 20 mg/kg, b5 40-80 mg/kg, PO or IP twice daily, 15 days
# Text: BALB/c athymic female nude mice (nu/nu, 5-7 weeks) (InVivos) were kept under specific pathogen-free (SPF) conditions. The care and use of mice was approved by the Duke-NUS IACUC in accordance with protocol 2015/SHS/1030. HCT15 human colon cancer cells (5×10^6) or MDA-MB-231 human breast cancer cells (4×10^6 with Matrigel) were subcutaneously injected into the flanks of mice. When the mean tumor volume reached 100-300 mm^3 (Day 1), the mice were randomly divided into experimental groups of 6 mice by an algorithm that moves animals around to achieve the best case distribution to assure that each treatment group has similar mean tumor burden and standard deviation. No statistical method was used to predetermine sample size. […] Tumor dimensions were measured using calipers, and tumor volume (mm^3) was calculated using the formula width^2×length/2 in a blinded fashion. […] Images were acquired in 3D-SIM mode using a super resolution microscope (Nikon), and the number of cells with either 2 or mitotic-spindles was quantified (n>50 cells per section, 6-7 sections per treatment). […] For the DAB image, a fixed threshold was used, watershed applied and the number of DAB stained nuclei counted. In all cases, no data or animals were excluded and results are expressed as mean and standard deviation of the mean.
# [4] = tested on: normal and transformed BJ cells; experiment: Crystal violet / MTT viability of isogenic normal and transformed BJ cells; conditions: 72 h; crystal violet and MTT (0.1-40 μM)
# [5] = tested on: normal and transformed BJ cells; experiment: Chemoprotection: a166 pre-treatment followed by a159, paclitaxel or etoposide; format: cell-based, human; conditions: without a166 pre-treatment
# Experimental: as §1
smiles,measurement,setting,value
COc1cc(/C=C(\C#N)C(=O)c2ccc(O)c(O)c2)cc(I)c1O [I-OMe-AG-538],IC50,PI5P4Kα,2100 nM
O=C(Nc1ccc2[nH]nc(-c3ccncc3)c2c1)[C@@H]1CCN(CC(=O)N2CCN(c3ccc(-c4ncccn4)cc3)CC2)C1 [SCH772984],PIK3IP1 mRNA expression after MEK/ERK inhibition,PIK3IP1,attenuates Ras- and Raf-mediated suppression of PIK3IP1
N#CC(=C(/N)Sc1ccccc1N)/C(C#N)=C(\N)Sc1ccccc1N [U0126],PIK3IP1 mRNA expression after MEK/ERK inhibition,PIK3IP1,attenuates Ras- and Raf-mediated suppression of PIK3IP1
N#C/C(=C\c1cncc2ccccc12)c1c[nH]c2ccccc12 [a132],Group (a131 SAR analysis),[1],Group 4
N#C/C(=C\c1cccc2cccnc12)c1c[nH]c2ccccc12 [a158],Group (a131 SAR analysis),[1],Group 2
N#C/C(=C\c1cccc2ncccc12)c1c[nH]c2ccccc12 [a159],Group (a131 SAR analysis),[1],Group 3
N#C/C(=C\c1cccc2cnccc12)c1c[nH]c2ncccc12 [a167],Group (a131 SAR analysis),[1],Group 4
N#C/C(=C\c1cccc2cnccc12)c1nc2ccccc2[nH]1 [a169],Group (a131 SAR analysis),[1],Group 4
"CN1CCN(CC(=O)n2cc(/C(C#N)=C/c3cccc4cnccc34)c3ccccc32)CC1 [b5, (Z)-3-(isoquinolin-5-yl)-2-(1-(2-(4-methylpiperazin-1-yl)acetyl)-1H-indol-3-yl)acrylonitrile]",cancer cell death in tumor sections (TUNEL staining),"[2]; HCT-15 tumor sections, Day 12, b5 80 mg/kg IP",cancer cell death as determined by TUNEL staining
same,antitumor activity (tumor volume),[2]; PO or IP twice daily,marked antitumor efficacies
same,body weight loss,"[2]; xenograft-bearing mice, PO or IP twice daily",without any body weight loss
same,antitumor activity (tumor volume),[3],marked antitumor efficacies
same,Group (a131 SAR analysis),[1],Group 1
CC(=O)NCCC(=O)n1cc(/C(C#N)=C/c2cccc3cnccc23)c2ccccc21 [b9],Group (a131 SAR analysis),[1],Group 1
N#C/C(=C\c1cccc2cnccc12)c1c[nH]c2ccc(OCCCN3CCCC3)cc12 [b12],Group (a131 SAR analysis),[1],Group 2
COCCOc1ccc2[nH]cc(/C(C#N)=C/c3cccc4cnccc34)c2c1 [b16],Group (a131 SAR analysis),[1],Group 2
CN1CCN(C(=O)Cn2cc(/C(C#N)=C/c3cccc4cnccc34)c3ccccc32)CC1 [b94],Group (a131 SAR analysis),[1],Group 2
COC(=O)Nc1nc2ccc(C(=O)c3cccs3)cc2[nH]1 [nocodazole],selective killing of transformed versus normal BJ cells (cell viability),[4],showed minimal selectivity
CC(=O)O[C@H]1C(=O)[C@@]2(C)[C@H]([C@H](OC(=O)c3ccccc3)[C@]3(O)C[C@H](OC(=O)[C@H](O)[C@@H](NC(=O)c4ccccc4)c4ccccc4)C(C)=C1C3(C)C)[C@]1(OC(C)=O)CO[C@@H]1C[C@@H]2O [paclitaxel],antitumor activity (tumor volume),[2]; PO or IP twice daily,did not show significant antitumor activity
same,"selectivity against transformed BJ cells, treatment alone",[5],showed minimal selectivity against transformed BJ cells
same,selective killing of transformed versus normal BJ cells (cell viability),[4],showed minimal selectivity
